Assay results as given in US20220227709A1, “COMPOSITIONS AND METHODS FOR TREATING SCHISTOSOMA INFECTIONS” (THE BOARD OF REGENTS OF THE UNIVERSITY OF TEXAS SYSTEM, priority 2019, published 2022).

Legend:
[1] = system: S. mansoni adult schistosomes; experiment: Schistosomiasis screening, adult worm killing (S. mansoni); assay type: cell-based, Schistosoma mansoni; settings: for Kill % S. m: adult worms, final concentration 143 μM, 45 minutes incubation, washed, cultured 10-14 days, read day 14
Description: (§1) Schistosomiasis screening methods Strains of S. mansoni, S. haematobium, and S. japonicum were maintained by passage through species-specific snail intermediate hosts (Biomphlaria glabrata, Bulinus truncatus, and Oncomelania hupensis, respectively) and Golden Syrian Hamsters as a definitive host. Definitive host animals were sacrificed in accordance with IACUC protocol (UTHSCSA IACUC Protocol #08039) by intraperitoneal injection using Fatal-Plus (Butler Animal Health, Ohio), a sodium pentobarbital solution, with 10% heparin added. The adult parasites were obtained by perfusion as previously described using 0.9% saline containing EDTA.^1 Derivatives were solubilized in DMSO and diluted to working concentration of 50 mM and added directly to each well of a 24-well plate within 2-24 hours after harvesting adult schistosomes from the hamsters at a final concentration of 143 μM. Each analog was tested in triplicate. DMSO, oxamniquine (OXA, the parent drug known to kill only S. mansoni), or Hycanthone (HC, a carcinogen known to kill S. mansoni and S. haematobium) were used as controls as needed. Drugs were incubated with the worms at 37° C., 5% CO2 for 45 minutes, mimicking physiological conditions. The worms were washed with plain media 3 times to remove any residual derivatives. Worms were then incubated in culture media as previously described for a period of 10-14 days. On day 14, the assay gives % worms alive as an efficacy data point. For comparison, Oxaminiquine scores 50% alive in this assay.

[2] = system: S. japonicum adult schistosomes; experiment: Schistosomiasis screening, adult worm killing (S. japonicum); assay type: cell-based, Schistosoma japonicum; settings: adult worms, final concentration 143 μM, 45 minutes incubation, washed, cultured 10-14 days, read day 14
Description: as §1

[3] = system: S. haematobium adult schistosomes; experiment: Schistosomiasis screening, adult worm killing (S. haematobium); assay type: cell-based, Schistosoma haematobium; settings: adult worms, final concentration 143 μM, 45 minutes incubation, washed, cultured 10-14 days, read day 14
Description: as §1

O=[N+]([O-])c1ccc2c(O)cc3cccc4ccc1c2c43 [CIDD-0150329]
Kill % S. m [1]: 40%

O=[N+]([O-])c1ccc2cc(O)c3cccc4ccc1c2c43 [CIDD-0150330]
Kill % S. m [1]: 10%

Oc1cccc2c1ccc1c(F)c3ccccc3cc12 [CIDD-0150240]
Kill % S. m [1]: 20%

Cc1c2ccccc2nc2c(C(=O)NCCN(C)C)cccc12 [CIDD-0150237]
Kill % S. m [1]: 33%

C[C@@H](O)[C@H]1C(=O)N2C(C(=O)O)=C(S[C@@H]3CN[C@H](C(=O)Nc4cccc(C(=O)O)c4)C3)[C@H](C)[C@H]12 [CIDD-0150610]
Kill % S. j [2]: 100% | Kill % S. m [1]: 100% | Kill % S. h [3]: 100%

Cc1c[nH]c2c1C13CC1CN(S(C)(=O)=O)C3=CC2=O (stereo not shown) [CIDD-0150241]
Kill % S. m [1]: 33%

OCC(O)COc1ccccc1C1CCCC1 (stereo not shown) [CIDD-0150607]
Kill % S. m [1]: 50%

O=Nc1ccc2ccc3cc4ccccc4c4ccc1c2c34 [CIDD-0150608]
Kill % S. m [1]: 93.3% | Kill % S. h [3]: 71.4%

CC(=O)Nc1cnc(COC(N)=O)n1C [CIDD-0150332]
Kill % S. m [1]: 17%

CC(C)NCC1CCc2cc(CO)c([N+](=O)[O-])cc2N1 (stereo not shown) [Oxaminiquine, oxamniquine, reference compound]
% worms alive ([1]; day 14, control drug for comparison, species not given): 50%

Nc1c2ccccc2nc2c(C(=O)NCCNCCO)cccc12 [CIDD-0150236]
Kill % S. m [1]: 43%

O=C(O)CCCn1c2ccccc2c(=O)c2ccccc21 [CIDD-0150302]
Kill % S. j [2]: 40% | Kill % S. m [1]: 80% | Kill % S. h [3]: 20%

Cc1nc(SC[C@H](N)C(=O)O)c(N)n1C [CIDD-0150331]
Kill % S. m [1]: 10%

c1cc2ccc3c4ccc5cccc(c(c1)c23)c54 [CIDD-0150609]
Kill % S. m [1]: 16.6%

CCCCCS(=O)(=O)OCC [CIDD-0150334]
Kill % S. m [1]: 47%

O=[N+]([O-])c1ccc2c3c1ccc1cccc(c13)[C@@H](O)[C@H]2O [CIDD-0150328]
Kill % S. m [1]: 16%

O=S([O-])([O-])=S.O=S([O-])([O-])=S.[Ag+].[Na+].[Na+].[Na+] [CIDD-0150303]
Kill % S. j [2]: 100% | Kill % S. m [1]: 100% | Kill % S. h [3]: 40%

O=[N+]([O-])c1cc(NCC2(Cc3cccc(C(F)(F)F)c3)CCN(Cc3c[nH]c4ccccc34)C2)ccc1CO (stereo not shown) [CIDD-0149830, (4-(((1-((1H-indol-3-yl)methyl)-3-(3-(trifluoromethyl)benzyl)pyrrolidin-3-yl)methyl)amino)-2-nitrophenyl)methanol]
Kill % S. j [2]: 100% | Kill % S. m [1]: 100% | Kill % S. h [3]: 100%

CCN(CC)CCNC(=O)c1cccc2c(N)c3ccccc3nc12 [CIDD-0150239]
Kill % S. m [1]: 36%

CN(C)CCCNC(=O)c1cccc2c(N)c3ccccc3nc12 [CIDD-0150238]
Kill % S. m [1]: 6%

C=CCN(N=O)C(C)OC(C)=O (stereo not shown) [CIDD-0150326]
Kill % S. m [1]: 3.3%

CN(C)CCNC(=O)c1cccc2c(N)c3cc(Cl)ccc3nc12 [CIDD-0150235]
Kill % S. m [1]: 60%

Cn1c([N+](=O)[O-])nc2ccc3ccccc3c21 [CIDD-0150606]
Kill % S. m [1]: 100% | Kill % S. h [3]: 85.7%

O[C@@H]1c2ccccc2-c2cc3ccccc3c(F)c2[C@H]1O [CIDD-0150242]
Kill % S. m [1]: 56%

CC(=O)OC(C)N(N=O)C1CC1 (stereo not shown) [CIDD-0150327]
Kill % S. m [1]: 3.3%

CCCS(=O)(=O)OCC [CIDD-0150333]
Kill % S. m [1]: 20%

Cn1c([N+](=O)[O-])nc2c3ccccc3ccc21 [CIDD-0150605]
Kill % S. m [1]: 13%
